How the values were obtained:
iNOS = assay: Inhibition of LPS-induced iNOS induction in Raw264.7 cells (Griess reagent); format: cell-based; details: Mus musculus, Raw264.7, LPS 100 ng/ml, 24 hours, read-out: Inhibition rate of iNOS induction (%)
Protocol: To investigate whether or not the derivative of the present invention could inhibit iNOS inducement, Raw264.7 cells (mouse macrophages) were distributed in a 384-well plate at the density of 3×10^4 cells/well. The cells were treated with LPS at the concentration of 100 ng/ml, followed by culture at 37° C. for 24 hours. The concentration of […] increased in the medium was measured by using Griess reagent. The inhibition rate was calculated by mathematical formula based on the detected signals. The results are shown in Table 2. % inhibition=(mean value of sample−mean value of negative control)/(mean value of positive control −mean value of negative control)×100 [Mathematical Formula 1]

NFATc = assay: NFAT (NFATc) transcriptional activity, THP1-XBlue-MD2-CD14 cells, SEAP; format: cell-based; details: LPS 1 μg/ml, 24 hours, FIG. 2B
Protocol: To evaluate the transcriptional activity of NFAT, THP1-XBlue-MD2-CD14 cells were cultured in 10% FBS-RPMI (supplemented with 200 μg/ml of Zeocin and 250 μg/ml of G418). First, the cells were distributed in a 96-well plate at the density of 2×10^4 cells/well, followed by culture. 1 μg/ml of LPS and the compound of the invention were added thereto, followed by culture for 24 hours. 20 μl of the supernatant was added with 180 μl of secreted embryonic alkaline phosphatase (SEAP) detection medium, followed by culture for 2 hours. Then, OD655 was measured.

COX1 = molecular target: T1, COX1 (Ovis aries, UniProt P05979); assay: COX inhibition, COX assay kit (Table 4); format: biochemical
T1 construct: purchased Cayman Co. 760111
T1 sequence (P05979 25-600): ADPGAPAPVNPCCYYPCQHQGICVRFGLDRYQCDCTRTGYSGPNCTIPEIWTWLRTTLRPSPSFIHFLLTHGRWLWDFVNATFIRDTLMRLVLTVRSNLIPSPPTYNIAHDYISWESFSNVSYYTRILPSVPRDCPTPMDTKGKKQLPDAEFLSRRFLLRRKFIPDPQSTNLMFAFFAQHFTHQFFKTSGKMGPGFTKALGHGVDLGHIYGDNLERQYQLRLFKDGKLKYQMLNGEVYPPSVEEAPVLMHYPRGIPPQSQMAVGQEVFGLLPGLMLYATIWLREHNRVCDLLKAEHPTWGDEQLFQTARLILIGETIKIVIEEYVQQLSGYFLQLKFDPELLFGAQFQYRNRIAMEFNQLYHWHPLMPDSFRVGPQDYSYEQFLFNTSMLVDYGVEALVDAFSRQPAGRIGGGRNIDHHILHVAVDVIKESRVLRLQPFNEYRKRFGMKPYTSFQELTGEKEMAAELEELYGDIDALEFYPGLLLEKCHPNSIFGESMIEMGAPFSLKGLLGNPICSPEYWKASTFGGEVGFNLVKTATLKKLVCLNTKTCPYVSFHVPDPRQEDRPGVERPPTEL
Protocol: 10 μl of substrate and 10 μl of arachidonic acid were added thereto, followed by reaction for 10 minutes in the darkness. Then, OD590 was measured.

[1] = Cytotoxicity test (WST-8), VERO; format: cell-based; details: African green monkey, VERO kidney cells
Protocol: (§1) To investigate the cytotoxicity of the derivative of the present invention, 5 kinds of cell lines (VERO: African green monkey kidney cell line, HFL-1: human embryonic lung cell line, L929: NCTC clone 929, mouse fibroblast cell line, NIH 3T3: mouse embryonic fibroblast cell line, and CHO-K1: Chinese hamster ovary cell line) were distributed in a 96-well plate at the density of 1×10^4 cells/well, which were treated with the compound of the present invention for 24 hours. The water-soluble tetrazolium salt WST-8 was added thereto. The orange colored formazan dye degraded by dehydrogenase in the live cells was read, followed by nonlinear regression to determine 50% growth inhibition concentration.

[2] = Cytotoxicity test (WST-8), HFL-1; format: cell-based; details: human, HFL-1 embryonic lung cells; HFL-1, 24 hours
Protocol: as §1

[3] = Cytotoxicity test (WST-8), NIH 3T3; format: cell-based; details: mouse, NIH 3T3 embryonic fibroblast cells; NIN3T3, 24 hours
Protocol: as §1

[4] = Cytotoxicity test (WST-8), CHO-K1; format: cell-based; details: Chinese hamster, CHO-K1 ovary cells; CHO-K1, 24 hours
Protocol: as §1

[5] = Metabolic stability in rat liver microsomes; format: in vitro ADME; details: rat liver microsome fractions, 30 minutes
Protocol: Particularly, each compound was added to rat and human liver microsome fractions, followed by culture for 30 minutes. Each compound was administered via intravenous injection (iv) and oral-administration (po) to rat at the concentration of 5 mg/kg, followed by making pharmacokinetic profiles.

IL-6 and TNF-α = assay: Inflammatory cytokine expression in LPS-treated human mononuclear cells (PBMC), real-time PCR; format: cell-based; details: LPS 1 μg/ml, compound 1 μg/ml, 6 hours, FIG. 11
Protocol: Particularly, PBMC separated from healthy human blood was treated with LPS (1 μg/ml). The cells were treated with the compound of the present invention at the concentration of 1 μg/ml, followed by culture for 6 hours to investigate whether or not the induced inflammatory cytokine secretion was inhibited by the compound. RNA was separated from the cells, from which the transcription levels of IL-6 and TNF-α were quantified by real-time PCR. The results are shown in FIG. 11 (NC: negative control, PC: positive control).

Th17 cells = assay: Differentiation of mouse naïve T cells into Th17 cells; format: cell-based; details: Rag2 KO/OVA-TCRtg naïve T cells, 3 days, secreted cytokine protein; compared with berberine; FIG. 12
Protocol: Particularly, the transgenic mouse (Rag2 KO/OVA-TCRtg) naïve T cells were cultured under the condition of Th17 cell differentiation (treated with IL-6, IL-1β, and TGF-β along with APC cells) for 3 days. Compared with berberine known as a Th17 differentiation inhibitor, the inhibitory effect of the NFAT5 inhibitor on the differentiation of Th17 was measured by quantifying the secreted cytokine protein. Cell survival rate under the same condition was also measured by CCK-8.

- inhibitory effect on COX1 (in words) (COX1): weak inhibitory effect
- inhibition rate (COX1; Conc. 20 μM, two values per substance): 7.4
- inhibition at 20 µM (COX1; Conc. 20 μM, two values per substance, read-out: inhibition rate): 11.4%
- inhibition rate (COX1; Conc. 100 μM, two values per substance): 23.4
- inhibition at 100 µM (COX1; Conc. 100 μM, two values per substance, read-out: inhibition rate): 28.4%
- IC50 (COX1; Table 4): > 100 µM
- remaining compound, Rat (%) [5]: 35 ± 3%
Structure (SMILES): COc1ccc2c(Cc3ccccc3F)c3n(c(=O)c2c1OC)CCc1cc2c(cc1-3)OCO2 [Example 1, 13-(2-fluorobenzyl)-9,10-dimethoxy-5H-[1,3]dioxolo[4,5-g]isoquinolino[3,2-a]isoquinoline-8(6H)-one]
- inhibition at 1 µM (iNOS; 1 μM): 91%
- inhibition at 10 µM (iNOS; 10 μM): 134%
- inhibition of NFAT promoter / transcriptional activity (in words) (NFATc): slightly
- GI50 at 24 h [1]: 84.2 µM
- GI50 at 24 h [2]: 26.1 µM
- GI50 at 24 h [3]: 7.16 µM
- GI50 at 24 h [4]: 12.1 µM
- expression of cytokines (IL-6, TNF-α transcription levels) (IL-6 and TNF-α): inhibit the expression of cytokines
- inhibitory effect on the differentiation of Th17 (Th17 cells): inhibitory effect on the differentiation of Th17 as similar as berberine

From patent US9650389B2, “8-oxoprotoberberine derivative or pharmaceutically acceptable salt thereof, preparation method therefor and pharmaceutical composition for preventing or treating diseases associated with activity of NFAT5, containing same as active ingredient” (Korea Research Institute of Chemical Technology, priority 2013, dated 2017)
